Patent US6569878B1, “Substituted 4-amino-thiazol-2-yl compounds as cyclin-dependent kinase inhibitors” (Agouron Pharmaceuticals Inc., priority 1997, dated 2003)
pIC50, pKi: −log10 of the molar value. Like-named read-outs stand apart in the source and are kept apart here.

Experiments:
[1] = target: T1, complex of human CDK4 and cyclin D3 (Homo sapiens, UniProt P11802); assay: Inhibition of CDK4/cyclin D retinoblastoma kinase activity (D-type cyclin is D3); assay type: biochemical; details: superscript a: D-type cyclin is D3, read-out: Ki CDK 4/D; for pKi: apparent Ki
T1 construct: made in house; host or cells: insect cells, co-infected with baculovirus
Outline: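 Apparent Ki derived by fitting background-corrected activity to competitive (or, for tight binders, competitive tight-binding) equations with measured ATP Km. Rb phosphorylation by radiolabelled ATP was measured at 30°C, 20 min standard or 60 min at 5 nM complex for tight binders, via nitrocellulose capture and phosphorimager.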

[2] = target: T2, complex of cyclin D1 and a fusion protein of human CDK4 and glutathione-S-transferase (GST-CDK4) (Homo sapiens, UniProt P11802); assay: Inhibition of CDK4/cyclin D retinoblastoma kinase activity (D-type cyclin is D1); assay type: biochemical; details: superscript b: D-type cyclin is D1, read-out: Ki CDK 4/D; for Ki: μM
T2 construct: made in house; host or cells: insect cells, co-infected with baculovirus
Protocol: Cyclin-dependent kinase activity was measured by quantifying the enzyme-catalyzed, time-dependent incorporation of radioactive phosphate from [^32P]ATP or [^33P]ATP into a protein substrate. Unless noted otherwise, assays were performed in 96-well plates in a total volume of 50 μL, in the presence of 10 mM HEPES (N-[2-hydroxyethyl]piperazine-N′-[2-ethanesulfonic acid]) (pH 7.4), 10 mM MgCl2, 25 μM adenosine triphosphate (ATP), 1 mg/mL ovalbumin, 5 μg/mL leupeptin, 1 mM dithiothreitol, 10 mM β-glycerophosphate, 0.1 mM sodium vanadate, 1 mM sodium fluoride, 2.5 mM ethylene glycol-bis(β-aminoethyl ether)-N,N,N′N′-tetraacetic acid (EGTA), 2% (v/v) dimethylsulfoxide, and 0.03-0.4 μCi [^32/33P]ATP per reaction. Reactions were initiated with enzyme, incubated at 30° C., and terminated after 20 minutes by the addition of ethylenediaminetetraacetic acid (EDTA) to 250 mM. The phosphorylated substrate was then captured on a nitrocellulose or phosphocellulose membrane using a 96-well filtration manifold, and unincorporated radioactivity was removed by repeated washing with 0.85% phosphoric acid. Radioactivity was quantified by exposing the dried membranes to a phosphorimager.
Apparent Ki values were measured by assaying enzyme activity in the presence of different inhibitor compound concentrations and subtracting the background radioactivity measured in the absence of enzyme. The kinetic parameters (kcat, Km for ATP) were measured for each enzyme under the usual assay conditions by determining the dependence of initial rates on ATP concentration. Inhibition data were fit to an equation for competitive inhibition using Kaleidagraph (Synergy Software), or were fit to an equation for competitive tight-binding inhibition using the software KineTic (BioKin, Ltd.).
A complex of human CDK4 and cyclin D3, or a complex of cyclin D1 and a fusion protein of human CDK4 and gluathione-S-transferase (GST-CDK4), or a complex of human CDK4 and genetically truncated (1-264) cyclin D3, was purified using traditional biochemical chromatographic techniques from insect cells that had been co-infected with the corresponding baculovirus expression vectors (see e.g., Meijer and Kim, “Chemical Inhibitors of Cyclin-Dependent Kinases,” Methods in Enzymol,. vol. 283 (1997), pp. 113-128.). The enzyme complex (5 or 50 nM) was assayed with 0.3-0.5 μg of purified recombinant retinoblastoma protein fragment (Rb) as a substrate. The engineered Rb fragment (residues 386-928 of the native retinoblastoma protein; 62.3 kDa) contains the majority of the phosphorylation sites found in the native 106-kDa protein, as well as a tag of six histidine residues for ease of purification. Phosphorylated Rb substrate was captured by microfiltration on a nitrocellulose membrane and quantified using a phosphorimager as described above. For measurement of tight-binding inhibitors, the enzyme complex concentration was lowered to 5 nM, and the assay duration was extended to 60 minutes, during which the time-dependence of product formation was linear.

CDK2/cyclin A = target: T3, CDK2/cyclin A (Homo sapiens, UniProt P24941); assay: Inhibition of CDK2/cyclin A retinoblastoma kinase activity; assay type: biochemical; details: read-out: Ki CDK 2/A
T3 construct: made in house; host or cells: CDK2: insect cells (baculovirus); cyclin A: E. coli, then limited proteolysis
Outline: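 Baculovirus-expressed CDK2 with excess proteolyzed cyclin A (or purified complex), 150 nM or 5 nM, phosphorylating an Rb fragment with 25 μM [32/33P]ATP, pH 7.4, 30° C, 20 min. Filter-captured radioactivity by phosphorimager; apparent Ki from fits to competitive or tight-binding competitive inhibition using measured ATP Km.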

[3] = target: T4, human CDK1 (cdc2) and cyclin B (Homo sapiens, UniProt P06493); assay: Inhibition of CDK1(cdc2)/cyclin B histone H1 kinase activity; assay type: biochemical; details: read-out: Ki CDK 1/B
T4 construct: purchased New England Biolabs (Beverly Mass.)
Outline: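 CDK1/cyclin B (commercial, or CDK1/GST-cyclin B1 from co-infected insect cells) phosphorylated histone H1 with 25 μM [32/33P]ATP at pH 7.4, 30° C for 20 min, 2% DMSO. Product captured on phosphocellulose and read by phosphorimager; apparent Ki from competitive or tight-binding fits, with Km for ATP determined.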

HCT116 = assay: Inhibition of cell growth, MTT assay, HCT116; assay type: cell-based, human; details: Homo sapiens, HCT-116
Outline: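 Cells rested 4 h after plating, then exposed to graded compound concentrations in 0.5% (v/v) DMSO for four to six days (cell-type dependent) at 37° C, 5% CO2. Viability was read by MTT (0.2 mg/mL final, 4 h at 37° C), with DMSO-solubilized formazan measured at 540 nm.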

SW-480 = assay: Inhibition of cell growth, MTT assay, SW-480; assay type: cell-based; details: Homo sapiens, SW480; SW-480, MTT assay
Protocol: Inhibition of cell growth was measured using the tetrazolium salt assay, which is based on the ability of viable cells to reduce 3-(4,5-dimethylthiazol-2-yl)-2,5-[2H]-diphenyltetrazolium bromide (MTT) to formazan (Mossman, Journal of Immunological Methods, vol. 65 (1983), pp. 55-58). The water-insoluble purple formazan product was then detected spectrophotometrically. Various cell lines (HCT-116, Saos-2, U2-OS, SW480, COLO-205, RXF-393, M14, MDA-MB-468, and MCF7) were grown in 96-well plates. Cells were plated in the appropriate medium at a volume of 135 μl/well in either McCoy's 5A Medium (for Saos-2, U2-OS, SW480, and HCT-116 cells), RPMI (for COLO-205, RXF-393, M14 cells), or Minimum Essential Medium Eagle (for MDA-MB-468 and MCF7 cells). Plates were incubated for four hours before addition of inhibitor compounds. Different concentrations of inhibitor compounds were added in 0.5% (v/v) dimethylsulfoxide (15 μL/well), and cells were incubated at 37° C. (5% CO2) for four to six days (depending on cell type). At the end of the incubation, MTT was added to a final concentration of 0.2 mg/mL, and cells were incubated for 4 hours more at 37° C. After centrifugation of the plates and removal of medium, the absorbance of the formazan (solubilized in dimethylsulfoxide) was measured at 540 nm. […] All results were compared to control cells treated only with 0.5% (v/v) dimethylsulfoxide.

T1 sequence (P11802 whole entry): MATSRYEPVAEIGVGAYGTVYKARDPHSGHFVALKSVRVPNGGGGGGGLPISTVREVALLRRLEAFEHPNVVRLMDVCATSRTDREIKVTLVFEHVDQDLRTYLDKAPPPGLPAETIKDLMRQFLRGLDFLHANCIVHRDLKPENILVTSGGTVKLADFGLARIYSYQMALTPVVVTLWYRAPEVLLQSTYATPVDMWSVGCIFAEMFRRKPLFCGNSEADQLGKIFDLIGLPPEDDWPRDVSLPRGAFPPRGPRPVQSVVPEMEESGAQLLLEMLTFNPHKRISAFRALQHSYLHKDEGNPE
T1 sequence (P30281 whole entry partner): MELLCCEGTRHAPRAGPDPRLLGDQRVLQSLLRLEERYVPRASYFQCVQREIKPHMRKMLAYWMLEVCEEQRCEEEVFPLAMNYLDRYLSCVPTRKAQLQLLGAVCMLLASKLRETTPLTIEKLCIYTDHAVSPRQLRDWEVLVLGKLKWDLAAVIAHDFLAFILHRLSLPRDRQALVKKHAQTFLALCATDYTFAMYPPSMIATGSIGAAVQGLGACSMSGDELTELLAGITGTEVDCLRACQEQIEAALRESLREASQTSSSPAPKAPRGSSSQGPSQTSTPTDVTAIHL
T2 sequence (P11802 whole entry, the tested form may be a part): as the sequence (P11802 whole entry) above
T2 sequence (P24385 whole entry partner, the tested form may be a part): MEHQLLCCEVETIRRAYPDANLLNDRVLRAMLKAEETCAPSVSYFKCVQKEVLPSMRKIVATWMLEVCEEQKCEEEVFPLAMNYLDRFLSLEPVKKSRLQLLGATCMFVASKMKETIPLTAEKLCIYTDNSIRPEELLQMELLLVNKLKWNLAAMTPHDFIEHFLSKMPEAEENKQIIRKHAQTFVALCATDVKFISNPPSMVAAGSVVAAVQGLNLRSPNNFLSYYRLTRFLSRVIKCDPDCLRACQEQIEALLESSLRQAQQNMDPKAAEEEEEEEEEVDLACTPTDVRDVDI
T4 sequence (P06493 whole entry): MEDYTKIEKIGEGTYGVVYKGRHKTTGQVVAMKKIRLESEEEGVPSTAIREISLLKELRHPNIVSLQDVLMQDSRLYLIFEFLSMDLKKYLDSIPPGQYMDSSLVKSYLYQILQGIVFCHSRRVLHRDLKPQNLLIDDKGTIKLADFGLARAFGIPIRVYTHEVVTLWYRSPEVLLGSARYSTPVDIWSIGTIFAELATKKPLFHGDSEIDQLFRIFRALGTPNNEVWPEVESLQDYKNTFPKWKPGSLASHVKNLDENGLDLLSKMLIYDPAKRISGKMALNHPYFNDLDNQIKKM
T4 sequence (P14635 whole entry partner): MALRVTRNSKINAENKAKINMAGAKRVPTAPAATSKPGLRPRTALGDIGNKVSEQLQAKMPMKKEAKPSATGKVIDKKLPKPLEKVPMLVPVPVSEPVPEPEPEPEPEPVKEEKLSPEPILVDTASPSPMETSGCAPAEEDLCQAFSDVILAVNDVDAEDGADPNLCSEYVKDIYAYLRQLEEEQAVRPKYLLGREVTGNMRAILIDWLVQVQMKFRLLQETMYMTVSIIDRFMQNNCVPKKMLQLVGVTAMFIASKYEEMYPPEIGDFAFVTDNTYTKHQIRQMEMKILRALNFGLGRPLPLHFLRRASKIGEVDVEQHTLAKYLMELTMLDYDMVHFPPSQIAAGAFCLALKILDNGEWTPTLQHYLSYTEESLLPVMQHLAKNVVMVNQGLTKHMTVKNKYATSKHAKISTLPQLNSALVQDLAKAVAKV

Row | Ki [2] | pKi (CDK2/cyclin A) | pKi [1] | pKi [3] | pKi [2] | Structure (SMILES) | also measured
1 | > 100 µM |  |  |  |  | CC(=O)c1sc(NCc2ccccc2)nc1N [I(3)*] | Ki ([1]; μM): > 5 µM
2 | ~30 µM | 5.06 | 5.10 |  |  | CC(=O)c1sc(Nc2ccccc2)nc1N [I(2)*] | 
3 | 3.1 µM |  |  | 5.41 |  | Nc1nc(Nc2ccccc2)sc1C(=O)C1CC1 [I(4)*] | Ki (CDK2/cyclin A; μM): 4.3 µM
4 |  | 6.05 |  |  | 6.31 | Nc1cccc(C(=O)c2sc(Nc3ccccc3)nc2N)c1 [D(1), (3-Amino-phenyl)-(4-amino-2-phenylamino-thiazol-5-yl)-methanone] | 
5 |  | 6.34 | 6.19 | 6.30 | 6.99 | Nc1nc(Nc2ccccc2)sc1C(=O)c1ccccc1 [I(1)*] | 
6 |  | 5.34 | 5.96 | 5.35 | 6.06 | CCNc1nc(N)c(C(=O)c2ccccc2)s1 [I(5)*] | 
7 |  | 5.92 | 6.18 |  | 6.11 | Nc1nc(Nc2ccccc2)sc1C(=O)c1cccc([N+](=O)[O-])c1 [A(1), (4-Amino-2-phenylamino-thiazol-5-yl)-(3-nitrophenyl)-methanone] | pIC50 (HCT116): 5.60; IC90 (HCT116): 10000 nM; pIC50 (SW-480): 5.40; IC90 (SW-480): 9000 nM
